Results: ChEMBL document CHEMBL6083276, “Pan-Transcriptional Enhanced Associated Domain Palmitoylation Pocket Covalent Inhibitor” (J Med Chem, 2024)
Active and inactive are the calls of the source. The calls are words filed in the database; no cut-off is given here.

Assays:
[1] = Inhibition of palmitoylation site of TEAD (unknown origin) in human Hippo Pathway/TEAD Luciferase reporter MCF7 cells assessed as reduction in transcriptional activation by measuring luciferase activity incubated for 24 hrs by Promega One-Glo luciferase reagent based assay; type: cell-based, Hippo Pathway/TEAD Luciferase reporter MCF7 cell; details: MCF7, 24 h
NCI-H226 [2] = experiment: Cytotoxicity against human NCI-H226 cells assessed as reduction in cell viability incubated for 144 hrs by CellTiter-Glo luciferase assay; type: functional, cell-based; details: NCI-H226, 144 h
[3] = tested on: Hippo Pathway/TEAD Luciferase reporter MCF7 cell; experiment: Inhibition of palmitoylation site of TEAD (unknown origin) in human Hippo Pathway/TEAD Luciferase reporter MCF7 cells assessed as reduction in transcriptional activation by measuring luciferase activity at 1000 nM incubated for 24 hrs by Promega One-Glo luciferase reagent based assay
NCI-H226 [4] = experiment: Inhibition of CYR61 gene expression in human NCI-H226 cells at 300 nM incubated for 24 hrs by RT-qPCR analysis; type: functional, cell-based
NCI-H226 [5] = experiment: Inhibition of CTGF gene expression in human NCI-H226 cells incubated for 24 hrs by RT-qPCR analysis; type: functional, cell-based; details: dose 30-300 nM
[6] = Metabolic stability in mouse liver microsomes assessed as parent compound remaining measured after 15 mins by LC-MS/MS analysis; type: ADME, Microsome; details: read-out: Stability
[7] = Metabolic stability in mouse liver microsomes assessed as parent compound remaining measured after 30 mins by LC-MS/MS analysis; type: ADME, Microsome; details: read-out: Stability
[8] = Metabolic stability in human liver microsomes assessed as parent compound remaining measured after 15 mins by LC-MS/MS analysis; type: ADME, Microsome; details: read-out: Stability
[9] = Metabolic stability in human liver microsomes assessed as parent compound remaining measured after 30 mins by LC-MS/MS analysis; type: ADME, Microsome; details: read-out: Stability
[10] = Selectivity index, ratio of IC50 for human NCI-H28 cells to IC50 for human NCI-H226 cells
[11] = (§1) Inhibition of CTGF gene expression in human NCI-H226 cells at 30 nM incubated for 24 hrs by RT-qPCR analysis relative to control; type: functional
[12] = (§2) Inhibition of CYR61 gene expression in human NCI-H226 cells at 30 nM incubated for 24 hrs by RT-qPCR analysis relative to control; type: functional
NCI-H226 [13] = experiment: Inhibition of CTGF gene expression in human NCI-H226 cells at 300 nM incubated for 24 hrs by RT-qPCR analysis; type: functional, cell-based
NCI-H226 [14] = experiment: Inhibition of CYR61 gene expression in human NCI-H226 cells incubated for 24 hrs by RT-qPCR analysis; type: functional, cell-based; details: dose 30-300 nM
[15] = target: Transcriptional enhancer factor TEF-1 (Homo sapiens) (UniProt P28347); experiment: Inhibition of Myc-tagged TEAD1 (unknown origin) palmitoylation transfected in HEK293 cells at 300 nM incubated for 24 hrs by palmitoylation assay; type: cell-based
[16] = target: Transcriptional enhancer factor TEF-4 (Homo sapiens) (UniProt Q15562); experiment: Inhibition of Myc-tagged TEAD2 (unknown origin) palmitoylation transfected in HEK293 cells at 300 nM incubated for 24 hrs by palmitoylation assay; type: cell-based
[17] = target: Transcriptional enhancer factor TEF-5 (Homo sapiens) (UniProt Q99594); experiment: Inhibition of Myc-tagged TEAD3 (unknown origin) palmitoylation transfected in HEK293 cells at 300 nM incubated for 24 hrs by palmitoylation assay; type: cell-based
[18] = target: Transcriptional enhancer factor TEF-3 (Homo sapiens) (UniProt Q15561); experiment: Inhibition of Myc-tagged TEAD4 (unknown origin) palmitoylation transfected in HEK293 cells at 300 nM incubated for 24 hrs by palmitoylation assay; type: cell-based
NCI-H226 [19] = experiment: Cytotoxicity against human NCI-H226 cells assessed as reduction in cell viability at 0.1 to 1 uM incubated for 12 to 48 hrs; type: functional, cell-based; details: dose 0.1-1 µM, time 12-48 hrs
HEK293 = experiment: Cytotoxicity against HEK293 cells assessed as reduction in cell viability at 0.1 to 1 uM incubated for 12 to 48 hrs; type: toxicity, cell-based; details: human, hek293, 1 µM; dose lower 0.1 µM, time lower 12 hrs, dose upper 1 µM, time upper 48 hrs
[20] = Cmax in mouse at 10 mg/kg, po measured after 24 hrs by LC-MS/MS analysis; type: ADME, organism-based; details: in vivo
[21] = Tmax in mouse at 10 mg/kg, po measured after 24 hrs by LC-MS/MS analysis; type: ADME, organism-based; details: in vivo
[22] = AUClast in mouse at 10 mg/kg, po measured after 24 hrs by LC-MS/MS analysis; type: ADME, organism-based; details: in vivo
[23] = MRT in mouse at 10 mg/kg, po measured after 24 hrs by LC-MS/MS analysis; type: ADME, organism-based; details: in vivo
[24] = Half-life in mouse at 10 mg/kg, po measured after 24 hrs by LC-MS/MS analysis; type: ADME, organism-based; details: in vivo
NCI-H226 [25] = experiment: Antitumor activity against human NCI-H226 cells xenografted in mouse assessed as reduction in tumor size at 10 to 30 mg/kg, po measured upto 28 days; type: functional, organism-based; details: dose 10-30 mg/kg, time <= 28.0 day
NCI-H226 [26] = experiment: Antitumor activity against human NCI-H226 cells xenografted in mouse assessed as tumor growth inhibition at 30 mg/kg, po measured after 17 days; type: functional, organism-based; details: time 17.0 day
[27] = Toxicity in mouse xenografted with human NCI-H226 cells assessed as body weight loss at 10 to 30 mg/kg, po administered for 28 days; type: organism-based; details: in vivo, 672 h, dose 10-30 mg/kg, time 28 day
NCI-H226 [28] = experiment: as §1; type: functional
NCI-H226 [29] = experiment: as §2; type: functional
NCI-H226 [30] = experiment: Antitumor activity against human NCI-H226 cells xenografted in mouse assessed as reduction in tumor volume at 10 mg/kg, po administered for 28 days; type: functional, organism-based; details: time 28.0 day
NCI-H226 [31] = experiment: Antitumor activity against human NCI-H226 cells xenografted in mouse assessed as tumor growth inhibition at 30 mg/kg, po administered for 28 days; type: functional, organism-based; details: time 28.0 day

Chain of Transcriptional enhancer factor TEF-5 (Homo sapiens) (Q99594 whole entry): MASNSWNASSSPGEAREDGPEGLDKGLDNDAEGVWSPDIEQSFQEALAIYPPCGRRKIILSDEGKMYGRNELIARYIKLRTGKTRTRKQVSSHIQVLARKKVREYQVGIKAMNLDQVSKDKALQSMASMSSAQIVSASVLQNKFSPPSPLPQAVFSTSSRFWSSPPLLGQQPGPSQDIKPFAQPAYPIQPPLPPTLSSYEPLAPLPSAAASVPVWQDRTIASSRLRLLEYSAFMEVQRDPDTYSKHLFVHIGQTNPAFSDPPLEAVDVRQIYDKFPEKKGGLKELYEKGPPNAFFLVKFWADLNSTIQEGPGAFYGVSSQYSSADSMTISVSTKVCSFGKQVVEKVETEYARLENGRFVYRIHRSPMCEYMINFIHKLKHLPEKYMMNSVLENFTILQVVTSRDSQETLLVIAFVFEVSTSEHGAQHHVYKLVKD
Chain of Transcriptional enhancer factor TEF-1 (Homo sapiens) (P28347 whole entry): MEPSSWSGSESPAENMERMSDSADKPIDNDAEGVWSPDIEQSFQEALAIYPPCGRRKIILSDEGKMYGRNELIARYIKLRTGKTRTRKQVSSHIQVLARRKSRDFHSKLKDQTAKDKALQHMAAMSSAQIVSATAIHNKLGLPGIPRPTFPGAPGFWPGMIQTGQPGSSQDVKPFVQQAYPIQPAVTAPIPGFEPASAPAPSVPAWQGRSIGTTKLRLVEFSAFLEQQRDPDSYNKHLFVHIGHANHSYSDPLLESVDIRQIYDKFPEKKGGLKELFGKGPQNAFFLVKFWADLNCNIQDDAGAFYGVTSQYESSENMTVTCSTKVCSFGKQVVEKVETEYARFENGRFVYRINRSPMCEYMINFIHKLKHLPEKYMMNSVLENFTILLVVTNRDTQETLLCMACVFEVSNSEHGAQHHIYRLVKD
Chain of Transcriptional enhancer factor TEF-3 (Homo sapiens) (Q15561 whole entry): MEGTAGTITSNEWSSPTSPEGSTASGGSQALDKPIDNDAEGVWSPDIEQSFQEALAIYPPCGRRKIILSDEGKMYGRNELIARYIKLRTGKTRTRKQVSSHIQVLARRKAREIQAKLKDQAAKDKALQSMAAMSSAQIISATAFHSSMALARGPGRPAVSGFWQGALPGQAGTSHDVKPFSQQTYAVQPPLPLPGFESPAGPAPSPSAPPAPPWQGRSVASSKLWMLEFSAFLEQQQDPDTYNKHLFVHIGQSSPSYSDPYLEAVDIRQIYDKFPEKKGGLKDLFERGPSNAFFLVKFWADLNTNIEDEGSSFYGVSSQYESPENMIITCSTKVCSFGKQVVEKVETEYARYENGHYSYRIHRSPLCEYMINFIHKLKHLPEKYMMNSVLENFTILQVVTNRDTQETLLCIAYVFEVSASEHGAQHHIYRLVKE
Chain of Transcriptional enhancer factor TEF-4 (Homo sapiens) (Q15562 whole entry): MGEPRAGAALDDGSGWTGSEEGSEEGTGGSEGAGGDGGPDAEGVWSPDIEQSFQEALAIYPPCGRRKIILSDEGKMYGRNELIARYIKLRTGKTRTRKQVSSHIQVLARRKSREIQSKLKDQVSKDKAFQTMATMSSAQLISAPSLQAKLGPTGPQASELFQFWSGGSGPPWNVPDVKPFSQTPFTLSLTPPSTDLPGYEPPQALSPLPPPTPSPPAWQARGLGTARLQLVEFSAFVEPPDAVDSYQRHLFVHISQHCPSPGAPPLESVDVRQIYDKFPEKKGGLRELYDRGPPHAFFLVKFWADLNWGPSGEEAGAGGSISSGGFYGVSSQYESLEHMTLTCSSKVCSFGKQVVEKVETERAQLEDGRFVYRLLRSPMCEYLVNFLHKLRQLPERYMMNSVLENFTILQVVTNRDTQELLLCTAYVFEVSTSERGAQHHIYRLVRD

C=CC(=O)N1CCc2ccc(-c3ccc(C(F)(F)F)c(F)c3)cc2C1
IC50 [1]: 0.36 nM
IC50 (NCI-H226 [2]): 115 nM

CN(C)C/C=C/C(=O)N1CCc2ccc(-c3ccc(C(F)(F)F)cc3)cc2C1
IC50 [1]: 0.65 nM
inhibition [3]: Active; Incomplete Inhibition Observed
inhibition (NCI-H226 [4]): Active; Minimal Inhibition Observed
inhibition (NCI-H226 [5]): Dose-dependent-effect

C=CC(=O)N1CCc2ccc(-c3ccc(C(F)(F)F)cn3)cc2C1
IC50 [1]: 4.11 nM
IC50 (NCI-H226 [2]): 26.6 nM

CC#CC(=O)N1CCc2ccc(-c3ccc(C(F)(F)F)cc3)cc2C1
IC50 [1]: 52.4 nM

CCC(=O)N1CCc2ccc(-c3ccc(C(F)(F)F)cc3)cc2C1
IC50 [1]: 1510 nM

C=CC(=O)N1CCc2ccc(-c3cccc(C(F)(F)F)c3)cc2C1
IC50 [1]: 0.88 nM
IC50 (NCI-H226 [2]): 85.2 nM

C=CC(=O)N1CCc2ccc(-c3ccc(C)cc3)cc2C1
IC50 [1]: 4.26 nM
IC50 (NCI-H226 [2]): 3.03 nM

C=CC(=O)N1CCc2ccc(-c3cccs3)cc2C1
IC50 [1]: 5.36 nM
IC50 (NCI-H226 [2]): 402 nM

C=CC(=O)N1CCc2ccc(-c3ccc(C(F)(F)F)cc3Cl)cc2C1
IC50 [1]: 1.04 nM
IC50 (NCI-H226 [2]): 119 nM

C=CC(=O)N1CCc2ccc(-c3ccc(C(F)(F)F)nc3)cc2C1
IC50 [1]: 5.48 nM
IC50 (NCI-H226 [2]): 391 nM

C=CC(=O)N1CCc2ccc(-c3ccc(F)cc3)cc2C1
IC50 [1]: 0.84 nM
IC50 (NCI-H226 [2]): 21.6 nM

C=CC(=O)N1CCc2ccc(-c3ccc(OC(F)(F)F)cc3)cc2C1
IC50 [1]: 0.7 nM
IC50 (NCI-H226 [2]): 22.2 nM

C=CC(=O)N1CCc2ccc(-c3ccccc3)cc2C1
IC50 [1]: 3.15 nM
IC50 (NCI-H226 [2]): 7.04 nM

C=CC(=O)Nc1ccc(C)c(Oc2ccc(Cl)cc2)c1
IC50 [1]: 0.61 nM
IC50 (NCI-H226 [2]): 10.6 nM
remaining at 0.25 h [6]: 26.4%
remaining at 0.5 h [7]: 9.7%
remaining at 0.25 h [8]: 77.6%
remaining at 0.5 h [9]: 63.5%

C=CC(=O)N1CCc2ccc(-c3ccc(C(F)(F)F)cc3)cc2C1
IC50 [1]: 0.34 nM
IC50 (NCI-H226 [2]): 3.34 nM
Ratio IC50 [10]: >150
inhibition at 0.03 µM [11]: > 50%
inhibition at 0.03 µM [12]: > 50%
inhibition (NCI-H226 [13]): Active; Higher Inhibition Observed
inhibition (NCI-H226 [4]): Active; Higher Inhibition Observed
inhibition (NCI-H226 [5]): Dose-dependent-effect
inhibition (NCI-H226 [14]): Dose-dependent-effect
inhibition [15]: Active
inhibition [16]: Active
inhibition [17]: Active
inhibition [18]: Active
Activity (NCI-H226 [19]): inactive
Activity (HEK293): Non-toxic
remaining at 0.25 h [6]: 75.9%
remaining at 0.5 h [7]: 62.7%
remaining at 0.25 h [8]: 95.9%
remaining at 0.5 h [9]: 79.6%
Cmax [20]: 974 ng/mL
Tmax [21]: 1.12 h
AUC(0-t) at 24 h [22]: 3810 ng·h/mL
MRT [23]: 6.08 h
half-life [24]: 3.06 h
Activity (NCI-H226 [25]): Active
Activity (NCI-H226 [26]): Active; Compound Showed Sustain Suppression Without Rebound
Activity [27]: Non-toxic

C=C(F)C(=O)N1CCc2ccc(-c3ccc(C(F)(F)F)cc3)cc2C1
IC50 [1]: 1.34 nM
IC50 (NCI-H226 [2]): 30.9 nM
Ratio IC50 [10]: >20
inhibition (NCI-H226 [28]): inactive
inhibition (NCI-H226 [29]): inactive
inhibition (NCI-H226 [13]): Active
inhibition (NCI-H226 [4]): Active
inhibition [15]: Active
inhibition [17]: Active
Activity (NCI-H226 [19]): inactive
Activity (HEK293): Non-toxic
remaining at 0.25 h [6]: 89.2%
remaining at 0.5 h [7]: 85.1%
remaining at 0.25 h [8]: 98.2%
remaining at 0.5 h [9]: 97.7%
Cmax [20]: 1390 ng/mL
Tmax [21]: 0.75 h
AUC(0-t) at 24 h [22]: 5410 ng·h/mL
MRT [23]: 7.5 h
half-life [24]: 5.62 h
Activity (NCI-H226 [30]): Active; Modest Effect Observed
Activity (NCI-H226 [31]): Active
Activity [27]: Non-toxic

C[C@H](NC(=O)c1ccc2c(-c3ccc(C(F)(F)F)cc3)cccc2c1)c1ccccn1
IC50 [1]: 1.9 nM
IC50 (NCI-H226 [2]): 27.1 nM
